Reference: patent US9617256B2 (priority 2007, dated 2017)
In brackets after ≈: the same amount, converted by molar mass. Read-outs that look alike come from different tables or passages of the source.

What was measured:
AECO001 (ATCC25922) = assay: MIC broth microdilution, AECO001; assay type: cell-based, E. coli; settings: for MIC: Escherichia coli
Experimental: (§1) Bacterial isolates were cultivated from −70° C. frozen stocks by overnight passages at 35° C. in ambient air on Mueller-Hinton agar (Beckton Dickinson, Franklin Lakes, N.J.). Clinical isolates tested were obtained from various geographically diverse hospitals in the US and abroad (Focus Diagnostics, Herndon, Va. and JMI, North Liberty, Iowa). Quality control strains were from the American Type Culture Collection (ATCC; Rockville, Md.). Additional primary panel strains were generated using standard molecular biology techniques.
(§2) Minimum Inhibitory Concentrations (MICs) were determined by the broth microdilution method in accordance with the Clinical and Laboratory Standards Institute (CLSI) guidelines. In brief, organism suspensions were adjusted to a 0.5 McFarland standard to yield a final inoculum between 3×10^5 and 7×10^5 colony-forming units (CFU)/mL. Drug dilutions and inocula were made in sterile, cation adjusted Mueller-Hinton Broth (Beckton Dickinson). An inoculum volume of 100 μL was added to wells containing 100 μL of broth with 2-fold serial dilutions of drug. All inoculated microdilution trays were incubated in ambient air at 35° C. for 18-24 hours. […] Performance of the assay was monitored by the use of laboratory quality-control strains and levofloxacin, a compound with a defined MIC spectrum, in accordance with CLSI guidelines.
(§3) *AECO001 is ATCC25922, AECO063 is ATCC25922 bearing an acrAB mutation, APAE001 is ATCC27853, APAE006 is a strain of P. aeruginosa in which all efflux pumps are inactivated, APAE006+PMBN indicates MICs with the indicated strain in the presence of 8 micrograms per milliliter of polymyxin B nonapeptide, AABA1060 is a clinical isolate of Acinetobacter baumannii, ASAU001 is a laboratory strain of S. aureus (ATCC29213).

[1] = tested on: AECO063 (ATCC25922 bearing an acrAB mutation); assay: microbe, parasite or virus in culture; assay type: cell-based, E. coli; settings: Escherichia coli, ATCC25922, read-out: MIC AECO063
Experimental: as §1, §2, §3

APAE001 (ATCC27853) = assay: MIC broth microdilution, APAE001; assay type: cell-based, P. aeruginosa; settings: Pseudomonas aeruginosa, ATCC27853, read-out: MIC APAE001, APAE001 (ATCC27853)
Experimental: as §1, §2, §3

[2] = tested on: APAE006 (strain of P. aeruginosa in which all efflux pumps are inactivated); assay: microbe, parasite or virus in culture; assay type: cell-based; settings: Pseudomonas aeruginosa, read-out: MIC APAE006, APAE006, all efflux pumps inactivated
Experimental: as §1, §2, §3

[3] = tested on: APAE006 in the presence of 8 micrograms per milliliter of polymyxin B nonapeptide; assay type: cell-based, P. aeruginosa; settings: APAE006 with 8 micrograms per milliliter polymyxin B nonapeptide
Experimental: as §1, §2, §3

[4] = tested on: AABA1060 (clinical isolate of Acinetobacter baumannii); assay: MIC broth microdilution, AABA1060; assay type: cell-based; settings: Acinetobacter baumannii, read-out: MIC AABA1060
Experimental: as §1, §2, §3

[5] = tested on: ASAU001 (laboratory strain of S. aureus, ATCC29213); assay: MIC broth microdilution, ASAU001; assay type: cell-based; settings: Staphylococcus aureus, ATCC29213, read-out: MIC ASAU001
Experimental: as §1, §2, §3

[6] = ATCC25922, read-out: MIC AECO001
[7] = ATCC25922, read-out: MIC AECO001 HSA AGP

CC(C)(N)[C@H](NC(=O)c1ccc(C#CC#Cc2ccc(C(F)(F)F)cc2)cc1)C(=O)NO [Example 82-26]
MIC (AECO001 (ATCC25922); [6]): < 2 µg/mL | MIC (AECO001 (ATCC25922); [7]): 16 to 64 µg/mL (≈ 36.1 to 144 µM) | MIC [1]: < 2 µg/mL | MIC (APAE001 (ATCC27853)): 2 to 16 µg/mL (≈ 4.51 to 36.1 µM) | MIC [2]: 2 to 16 µg/mL (≈ 4.51 to 36.1 µM) | MIC APAE006 + PMBN [3]: A (MIC's of 2.0 μg/mL or less = A) | MIC [4]: 2 to 16 µg/mL (≈ 4.51 to 36.1 µM) | MIC [5]: 2 to 16 µg/mL (≈ 4.51 to 36.1 µM)

C[C@@H](N)[C@H](NC(=O)c1ccc(/C=C/C#CC2CCCCC2)cc1)C(=O)NO [Example 114-17]
MIC (AECO001 (ATCC25922); [6]): < 2 µg/mL | MIC (AECO001 (ATCC25922); [7]): 2 to 16 µg/mL (≈ 5.41 to 43.3 µM) | MIC [1]: < 2 µg/mL | MIC (APAE001 (ATCC27853)): 2 to 16 µg/mL (≈ 5.41 to 43.3 µM) | MIC [2]: < 2 µg/mL | MIC APAE006 + PMBN [3]: A (MIC's of 2.0 μg/mL or less = A) | MIC [4]: 2 to 16 µg/mL (≈ 5.41 to 43.3 µM) | MIC [5]: 2 to 16 µg/mL (≈ 5.41 to 43.3 µM)

C[C@@H](NCC(=O)NC[C@H](NC(=O)c1ccc(C#Cc2ccccc2)cc1)C(=O)NO)c1ccccc1 [Example 132-3]
MIC (AECO001 (ATCC25922); [6]): < 2 µg/mL | MIC (AECO001 (ATCC25922); [7]): 2 to 16 µg/mL (≈ 4.13 to 33 µM) | MIC [1]: < 2 µg/mL | MIC (APAE001 (ATCC27853)): 16 to 64 µg/mL (≈ 33 to 132 µM) | MIC [2]: < 2 µg/mL | MIC APAE006 + PMBN [3]: A (MIC's of 2.0 μg/mL or less = A) | MIC [4]: 2 to 16 µg/mL (≈ 4.13 to 33 µM) | MIC [5]: 16 to 64 µg/mL (≈ 33 to 132 µM)

CCOCc1ccc(C#Cc2ccc(C(=O)N[C@H](C(=O)NO)C(C)(C)N)cc2)cc1 [Example 126-1, N—((S)-2-Amino-1-hydroxycarbamoyl-2-methyl-propyl)-4-(4-ethoxymethyl-phenylethynyl)-benzamide]
MIC (AECO001 (ATCC25922); [6]): < 2 µg/mL | MIC (AECO001 (ATCC25922); [7]): < 2 µg/mL | MIC [1]: < 2 µg/mL | MIC (APAE001 (ATCC27853)): < 2 µg/mL | MIC [2]: < 2 µg/mL | MIC APAE006 + PMBN [3]: A (MIC's of 2.0 μg/mL or less = A) | MIC [4]: < 2 µg/mL | MIC [5]: 16 to 64 µg/mL (≈ 39.1 to 156 µM)

CCOCc1ccc(C#Cc2ccc(C(=O)NC(C(=O)NO)C(C)(C)N)cc2)cc1 (centres unmarked) [Compound 126-2]
MIC (AECO001 (ATCC25922); [6]): < 2 µg/mL | MIC (AECO001 (ATCC25922); [7]): < 2 µg/mL | MIC [1]: < 2 µg/mL | MIC (APAE001 (ATCC27853)): 2 to 16 µg/mL (≈ 4.88 to 39.1 µM) | MIC [2]: < 2 µg/mL | MIC APAE006 + PMBN [3]: A (MIC's of 2.0 μg/mL or less = A) | MIC [4]: < 2 µg/mL | MIC [5]: 16 to 64 µg/mL (≈ 39.1 to 156 µM)

C[C@@H](N)[C@H](NC(=O)c1ccc(C#CC#CCCCO)cc1)C(=O)NO [Example 137-25]
MIC (AECO001 (ATCC25922); [6]): 16 to 64 µg/mL (≈ 46.6 to 186 µM) | MIC (AECO001 (ATCC25922); [7]): 16 to 64 µg/mL (≈ 46.6 to 186 µM) | MIC [1]: 2 to 16 µg/mL (≈ 5.82 to 46.6 µM) | MIC (APAE001 (ATCC27853)): 16 to 64 µg/mL (≈ 46.6 to 186 µM) | MIC [2]: < 2 µg/mL | MIC APAE006 + PMBN [3]: A (MIC's of 2.0 μg/mL or less = A) | MIC [4]: 16 to 64 µg/mL (≈ 46.6 to 186 µM) | MIC [5]: 16 to 64 µg/mL (≈ 46.6 to 186 µM)

CC(C)C#CC#Cc1ccc(C(=O)N[C@H](C(=O)NO)C(C)(C)N)cc1 [Example 91-15]
MIC (AECO001 (ATCC25922); [6]): < 2 µg/mL | MIC (AECO001 (ATCC25922); [7]): 2 to 16 µg/mL (≈ 5.86 to 46.9 µM) | Ratio of MICs on AECO001 [Cpd (A = —CHCH3NH2)/Cpd (A = —C(CH3)2NH2)] (AECO001 (ATCC25922); MIC of paired compound with A = —CHCH3NH2 divided by MIC of compound with A = —C(CH3)2NH2, n=2 data, pairs identical except for the A moiety): 6.5 | MIC [1]: < 2 µg/mL | MIC (APAE001 (ATCC27853)): < 2 µg/mL | MIC [2]: < 2 µg/mL | MIC APAE006 + PMBN [3]: A (MIC's of 2.0 μg/mL or less = A) | MIC [4]: < 2 µg/mL | MIC [5]: 2 to 16 µg/mL (≈ 5.86 to 46.9 µM)

C[C@@H](O)[C@H](NC(=O)c1ccc(C#CC#Cc2ccncc2)cc1)C(=O)NO [Example 137-19]
MIC (AECO001 (ATCC25922); [6]): < 2 µg/mL | MIC (AECO001 (ATCC25922); [7]): 2 to 16 µg/mL (≈ 5.5 to 44 µM) | MIC [1]: < 2 µg/mL | MIC (APAE001 (ATCC27853)): 2 to 16 µg/mL (≈ 5.5 to 44 µM) | MIC [2]: < 2 µg/mL | MIC APAE006 + PMBN [3]: A (MIC's of 2.0 μg/mL or less = A) | MIC [4]: 16 to 64 µg/mL (≈ 44 to 176 µM) | MIC [5]: 16 to 64 µg/mL (≈ 44 to 176 µM)

CC(C)(N)[C@H](NC(=O)c1ccc(C#CC#Cc2ccsc2)cc1)C(=O)NO [Example 88-15]
MIC (AECO001 (ATCC25922); [6]): < 2 µg/mL | MIC (AECO001 (ATCC25922); [7]): < 2 µg/mL | MIC [1]: < 2 µg/mL | MIC (APAE001 (ATCC27853)): < 2 µg/mL | MIC [2]: < 2 µg/mL | MIC APAE006 + PMBN [3]: A (MIC's of 2.0 μg/mL or less = A) | MIC [4]: < 2 µg/mL | MIC [5]: 2 to 16 µg/mL (≈ 5.24 to 41.9 µM)

CC(C)(O)[C@H](NC(=O)c1ccc(C#CC#Cc2cccc(F)c2)cc1)C(=O)NO [Example 82-24]
MIC (AECO001 (ATCC25922); [6]): < 2 µg/mL | MIC (AECO001 (ATCC25922); [7]): 2 to 16 µg/mL (≈ 5.07 to 40.6 µM) | MIC [1]: < 2 µg/mL | MIC (APAE001 (ATCC27853)): 2 to 16 µg/mL (≈ 5.07 to 40.6 µM) | MIC [2]: < 2 µg/mL | MIC APAE006 + PMBN [3]: A (MIC's of 2.0 μg/mL or less = A) | MIC [4]: < 2 µg/mL | MIC [5]: 2 to 16 µg/mL (≈ 5.07 to 40.6 µM)

CC(C)(N)[C@H](NC(=O)c1ccc(C#CC#Cc2cncnc2)cc1)C(=O)NO [Example 89-6]
MIC (AECO001 (ATCC25922); [6]): 2 to 16 µg/mL (≈ 5.3 to 42.4 µM) | MIC (AECO001 (ATCC25922); [7]): 2 to 16 µg/mL (≈ 5.3 to 42.4 µM) | MIC [1]: < 2 µg/mL | MIC (APAE001 (ATCC27853)): < 2 µg/mL | MIC [2]: < 2 µg/mL | MIC APAE006 + PMBN [3]: A (MIC's of 2.0 μg/mL or less = A) | MIC [4]: 2 to 16 µg/mL (≈ 5.3 to 42.4 µM) | MIC [5]: 16 to 64 µg/mL (≈ 42.4 to 170 µM)
